{"source": "paper PMC9792601", "about": "“Conformational switch and multiple supramolecular structures of a newly identified self-assembling protein-mimetic peptide from Pseudomonas aeruginosa YeaZ protein” (Frontiers in Chemistry, 2022)", "key": {"[1]": {"details": "20 mM hydrogel in Milli-Q water, room temperature, 10 months", "quoted_text": "To prepare the hydrogels at different concentration, the lyophilized PMP-2 was dissolved in the suitable amount of Milli-Q water (final concentration of the prepared solutions: 0.1, 1, 2, 5, 10, and 20 mM) heating at 60°C for 3 min and sonicating for 1 min. The clear solutions were left cooling at rt.\n5 Preparation of the PMP-2-based hydrogels\nPMP-2 was dissolved in the suitable amount of milliQ water (final concentration of the prepared\nsolutions: 0.1 mM, 1 mM, 2 mM, 5 mM, 10 mM and 20 mM) heating at 60 °C for 3 minutes and\nsonicating for 1 min. The clear solutions were left cooling at rt.\nThe 20 mM hydrogel was kept at room"}, "[2]": {"experiment": "Dynamic Light Scattering of aggregates", "assay_type": "physicochemical", "details": "25°C, aged 24 h", "protocol": "Malvern Zetasizer Nano instrument (Malvern Panalytical, Ltd.) was employed for Dynamic Light Scattering (DLS) analysis, performed at 25°C. The instrument is equipped with a 633 nm […] He–Ne laser at a scattering angle of 173°. All the samples used to analyze the stability of the PMP-2 aggregates as a function of different DMSO/water ratio were prepared by solvent displacement technique starting from concentrated solutions in 100% DMSO (0.125, 0.2, 0.5, 2, 4, and 10 mM) to obtain 0.1 mM final concentrations in Milli-Q water, with 80%, 50%, 20%, 10%, 5%, 2.5% and 1% v/v of DMSO, respectively. All the samples used to analyze the stability of the PMP-2 aggregates as a function of concentration were prepared starting from 0.1 mM in Milli-Q water with 5% v/v of DMSO and diluting with Milli-Q water to obtain the final concentration of 0.05, 0.01, 0.005, and 0.001 mM. The corresponding refractive index and viscosity data of DMSO/water mixtures are reported in the literature ([LeBel and Goring, 1962]) and the samples were aged 24 h at room temperature before the measurements."}, "[3]": {"experiment": "Solubility observations in solvents", "assay_type": "physicochemical"}}, "note": "Ends that are not written are not given here."}
{"sequence": "AIAIGVVQGLAFALGGKKKG [PMP-2]", "values": [{"measurement": "stability of hydrogel on storage", "setting": "[1]", "result": "complete stability"}, {"measurement": "DLS aggregate stability", "setting": "[2]; 0.1 mM, 5, 2.5 and 1% v/v DMSO/water", "result": "presence of stable aggregates"}, {"measurement": "DLS aggregate stability", "setting": "[2]; 0.1 mM, 20% and 10% DMSO in water", "result": "formation of some stable aggregates"}, {"measurement": "DLS aggregate stability", "setting": "[2]; 0.1 mM, 100, 80 and 50% v/v DMSO/water", "result": "very poor scattering power"}, {"measurement": "highest reachable concentration in DMSO", "setting": "[3]; DMSO", "result": 20, "unit": "mM"}, {"measurement": "solubility in water", "setting": "[3]; water, room temperature", "result": "low solubility at room temperature"}]}
